# Experimental data reported in EP1296995B1, “3'-PRODRUGS OF 2'-DEOXY-BETA-L-NUCLEOSIDES” (priority 2000, dated 2001).
# Entries after “also recorded” stand apart in the source; their conditions may differ. Where a name gives a salt, the structure may show the parent alone. Read-outs that look alike come from different tables or passages of the source.
# What was measured:
# [1] = physchem
# Experimental: (§1) To 1 mL of this solution, 1 mL of octanol-1 (B) saturated with 0.02 M phosphate buffer solution (A) was added. The resultant mixture was shaken and centrifuged; three samples from each phase was collected and analyzed by HPLC, as shown in Table 10. […]
# as §1, with “The solution was then saturated with octanol-1 (B). To” for “To”, “11.” for “10.”
# [2] = in vivo; conditions: monkey, po
# [3] = Stability study in buffers at various pH; type: physicochemical
# [4] = physchem; conditions: water
# [5] = in vitro; conditions: human, hepg2 cells
# Description: (§2) These studies included analysis of lactic acid production, mtDNA content and determination of changes in morphology (e.g., loss of cristae, matrix dissolution and swelling, and lipid droplet formation) of mitochondrial ultrastructure.
# [6] = test system: HepG2 cells; assay: in vitro
# Description: as §2
# [7] = test system: HBV; assay: Antiviral activity against HBV in 2.2.15 cells (reduction of HBV DNA)
# [8] = test system: HBV; conditions: human, 2.2.15 cells
# [9] = in vitro; conditions: human, plasma
# [10] = in vivo; conditions: rat, po
# [11] = in vivo; conditions: monkey
# Description: […]. […] Clinical observations were documented daily. Blood samples for hematology and serum chemistries were collected and body weight measured before treatment on Days 1, 4, 7, 10, and 14, and before necropsy on Day 17. After completion of Day 17 evaluations, all animals were euthanized and a complete necropsy performed, including macroscopic examination and comprehensive tissue collection.
# [12] = in vivo; conditions: monkey, po; remark: listed apart in the source
# [13] = in vitro; conditions: human, plasma; remark: listed apart in the source
# [14] = in vivo; design: species or system cynomologus monkeys (macaca fascicularis); conditions: cynomolgus monkey
# Description: The drug was quantitated in plasma and urine with a liquid chromatography-mass spectrometry (LC-MS) technique.
# [15] = Log P' study, MilliQ water / octanol-1; type: physicochemical; conditions: for P' (B/A'): MilliQ water pH 6.5 (A') / octanol-1 (B), Study 1 and Study 2
# [16] = in vivo; conditions: rat
# Experimental: Clinical observations were documented once daily. Body weights were documented before dosing on Days 1, 8, 15, 22, and 28 and before necropsy on Day 29. Food consumption was documented weekly. Blood samples for hematology and serum chemistries also were collected before necropsy on Day 29.
# Toxicokinetics. An additional 54 animals (27 males and 27 females) had samples collected for pharmacokinetic analyses on Days 1 and 28. […] Analysis of the 500 mg/kg group is in progress.
# [17] = Oral bioavailability of L-dC via dival-L-dC (HPLC); conditions: cynomolgus monkey
# Description: The drug was quantitated in plasma and in urine using HPLC analysis.
# [18] = monkey, in vivo
# [19] = molecular target: virion-associated DNA polymerase of WHV; assay: Endogenous polymerase assay, virion-associated DNA polymerase; type: biochemical
# [20] = test system: Rats Primary Hepatocytes; assay: Intracellular metabolism of L-dC in rat primary hepatocytes; conditions: 10 µM L-dC, 24 hours
# [21] = test system: Monkey Primary Hepatocytes; assay: Intracellular metabolism of L-dC in monkey primary hepatocytes; conditions: 10 µM L-dC, 24 hours, n=1
# [22] = monkey, in vivo; remark: listed apart in the source
# [23] = test system: VZV; assay: Antiviral panel: VZV in HFF; type: cell-based
# [24] = test system: HIV-1; conditions: read-out: EC50 HIV-1 (PBMC)
# [25] = test system: 2.2.15; assay: Cytotoxicity in 2.2.15 cells
# [26] = test system: Salmonella typhimurium strains TA98, TA100, TA1535, and TA1537 and escherichia coli strain WP2uvrA; assay: S. typhimurium and E. coli plate incorporation mutation assay; type: cell-based
# Experimental: L-dC was tested for its potential to cause mutation at the histidine operon of Salmonella typhimurium strains TA98, TA100, TA1535, and TA1537 and at the tryptophan opeton of escherichia coli strain WP2uvrA. L-dC at concentrations of […] plus positive and negative controls were tested. […] After incubation for approximately 68 hours, L-dC and controls were evaluated for the number of revertants per plate and integrity of the background microcolony lawn.
# [27] = test system: WHV; assay: Woodchuck model, twelve-week study; type: in vivo, woodchucks; conditions: 1 mg/kg/day
# Experimental: WHV DNA levels were determined by quantitative PCR.
# [28] = test system: WHV; assay: Woodchuck model of chronic hepatitis B infection, 28 days; type: in vivo, woodchucks
# [29] = test system: EBV; assay: Antiviral panel: EBV in Daudi; type: cell-based
# [30] = rhesus monkey, in vivo, po
# [31] = 0.02 m phosphate buffer, pH 7.2
smiles,measurement,setting,value
"CC(C)[C@H](N)C(=O)O[C@@H]1C[C@@H](n2ccc(N)nc2=O)O[C@H]1CO [3'-val-L-dC, 3'-valinyl ester of β-L-deoxyribocytosine]",logD,"[1]; 0.02 m phosphate buffer, pH 7.2, log P (octanol/water)",-1.53
same,bioavailability,[2],85.1 ± 24.5%
same,half-life,"[3]; 0.2m tris-hcl, pH 7.4",7 h
same,half-life,"[3]; pH 1.2 (135 mM KCl-HCl buffer solution), read-out: half-life",> 48 h
same,solubility,[4],> 408 mg/mL
"Nc1ccn([C@H]2CC[C@@H](CO)O2)c(=O)n1 [ddC, zalcitabine]",activity,[5],95 ± 4.4%
same,activity at 336 h,[5],13%
same,inhibition at 336 h,[5],87%
same,Lipid Droplet Formation,[6],negative
same,Mitochondrial Morphology,[6],abnormal
"Nc1ccn([C@H]2C[C@H](O)[C@@H](CO)O2)c(=O)n1 [D-dC, D-Deoxycytidine]",P(B/A),[1]; [31],0.039
same,log P (octanol/water),[1]; [31],-1.41
"O=c1[nH]c(=O)n([C@@H]2O[C@H](CO)[C@@H](O)[C@@H]2F)cc1I [FIAU, fialuridine]",activity,[5],203%
same,activity at 336 h,[5],86%
same,Lipid Droplet Formation,"[6]; Conc. (µM): L-dC 10, FIAU 10, ZDV 50, ddC 1",positive
same,Mitochondrial Morphology,"[6]; Conc. (µM): L-dC 10, FIAU 10, ZDV 50, ddC 1, electron microscopy",abnormal
same,increase of lactic acid production compared to vehicle control,[6]; HepG2 cells,100%
"Cc1cn([C@@H]2C[C@@H](O)[C@H](CO)O2)c(=O)[nH]c1=O [L-dT, β-L-2'-deoxythymidine, reference compound]",EC90,"[7]; 10-fold reduction of HBV virion DNA levels, combination study",1.2 ± 0.1 µM
same,S.I. (CC50/EC90),[8],"2,518"
"CC(C)[C@H](N)C(=O)OC[C@@H]1O[C@H](n2ccc(N)nc2=O)C[C@H]1OC(=O)[C@@H](N)C(C)C [3'5'-dival-L-dC, 3,5'-L-Valine ester of 2'-deoxy-β-L-cytidine hydrochloride]",logD,[1]; [31],-0.86
same,degraded,"[1]; octanol-1, pH 7.2",14%
same,degraded,"[1]; phosphate buffer, pH 7.2",50%
same,half-life,[9],~0.65 h
same,NOAEL at 360 h,[10],2000 mg/kg
same,Fa,[2],~73%
same,bioavailability,[2],72.7 ± 22%
same,"RBC, HGB and HCT lower at Day 17 compared to Day 1",[11],15-27%
same,decrease of BUN at Day 17 compared to Day 1,[11],~43%
same,NOAEL,[11]; po,2000 mg/kg
same,NOAEL at 600 h,[12],< 500 mg/kg
same,fraction unbound,[13],0.867
same,share of drug excreted in the urine (total recovered dose),[14]; iv,approximately 0.15%
same,share of drug excreted in the urine (total recovered dose),[14]; po,No dival-L-dC was detected
same,P' (B/A'),[15],1.80 x10^-3
same,P' (B/A'),"[15]; listed as L-dC-3',5'-divalinyl ester hydrochloride, hydrochloride",1.77 x 10^-3
same,conversion to the monoesters or L-dC during log P' experiment,"[15]; aqueous or organic phases, MilliQ water",No conversion
same,NOAEL at […],[16]; po,< 500 mg/kg
same,dose excreted at 8 h,"[17]; urine, 10 mg/kg",~26%
same,dose excreted at 72 h,"[17]; urine, 10 mg/kg",31%
"CC(C)[C@H](N)C(=O)OC[C@@H]1O[C@H](n2ccc(N)nc2=O)C[C@H]1O [5'-val-L-dC, 5'-L-valine ester of 2'-deoxy-β-L-cytidine hydrochloride]",bioavailability,[2],39 ± 11.4%
same,share of drug excreted in the urine (total recovered dose),[14]; iv,~3.7%
same,concentration at 2 h,"[14]; iv, 10 mg/kg",80 nM
same,share of drug excreted in the urine (total recovered dose),[14]; po,~0.2%
same,Tlast (median),[18],10 h
same,median Tmax,[18]; po,1 h
same,AUClast higher for females than males,[16],25-50%
same,AUClast higher on Day 28 vs. Day 1,[16],30-62%
same,Tmax,[16]; po,1 to 2 h
Nc1ccn([C@@H]2C[C@@H](O)[C@H](COP(=O)(O)OP(=O)(O)OP(=O)(O)O)O2)c(=O)n1 [L-dC-TP],IC50,"[19]; endogenous polymerase assay, read-out: IC50 viral DNA pol (WHV DNA polymerase)",1.82 ± 0.23 µM
same,intracellular metabolite level,[20],14.2 ± 3.1 µM
same,intracellular metabolite level,[21],39.3 µM
"CC(=O)Nc1ccn([C@@H]2C[C@@H](O)[C@H](CO)O2)c(=O)n1 [N^4-acetyl-L-dC, N^4-Acetyl-2'-deoxy-β-L-cytidine]",half-life,"[3]; pH 1.2, read-out: half-life",0.833 h
"CC(=O)OC[C@@H]1O[C@H](n2ccc(N)nc2=O)C[C@H]1OC(C)=O [3'5'-diacetyl-L-dC, 3',5'-Di-O-acetyl-2'-deoxy-β-L-cytidine]",logD,[1]; [31],-0.74
same,bioavailability,[2],23 ± 6.5%
"Nc1ccn([C@@H]2C[C@@H](O)[C@H](CO)O2)c(=O)n1 [L-dC, 2'-deoxy-β-L-cytidine]",S.I. (CC50/EC90),[7]; 2.2.15 cells,"2,727"
same,HBV replication returned to 50% of pretreatment levels,"[7]; viral rebound after drug withdrawal, 2.2.15 cells",≤ 18 day post-treatment
same,Lipid Droplet Formation,[6],negative
same,CC50,"[6]; HepG2 cells, after 14 days of treatment",> 2000 µM
same,AUC(0-t),"[22]; iv, 10 mg/kg",81.1 µM·h
same,AUC(0-t),"[22]; po, 10 mg/kg",13.7 µM·h
same,EC50 VZV (HFF),[23],18.6 µg/mL
same,EC50,[24],> 200 µM
same,CC50,[25]; 2.2.15,> 2000 µM
same,CC50,"[25]; 2.2.15 cells, 50% inhibition of neutral red dye uptake, combination study",3000 ± 96 µM
same,mutagenicity,[26]; concentrations up to 5000 µg/plate,not mutagenic
same,mutagenicity,"[26]; concentrations up to 5000 mg/plate, with and without rat liver S-9",no evidence of mutagenicity
same,toxicity,[27]; 12-week treatment phase and 12-week follow-up,no drug-related toxicity
same,end-of-treatment liver biopsies,[27]; 12 weeks,no histomorphological evidence of fatty changes (microvesicular steatosis); also recorded: no evidence of fatty change (microvesicular steatosis)
same,body weight,"[28]; compared to control animals, 28 days 0.01-10 mg/kg/day",no weight loss
same,toxicity,"[28]; four-week treatment phase and eight-week follow-up, 0.01-10 mg/kg/day orally",no drug-related toxicity; also recorded: No toxicity was observed
same,EC50 EBV (Daudi),[29],>50 µg/mL
"Nc1ccn([C@@H]2CS[C@H](CO)O2)c(=O)n1 [3TC, (-)-enantiomer of cis-2-hydroxymethyl-5-(cytosin-1-yl)-1,3-oxathiolane, reference compound]",S.I. (CC50/EC90),[7]; 2.2.15 cells,"> 5,000"
"O=c1ccn([C@@H]2C[C@@H](O)[C@H](COP(=O)(O)OP(=O)(O)OP(=O)(O)O)O2)c(=O)[nH]1 [L-dU-TP, β-L-2'-deoxyuridine 5'-triphosphate]",IC50,"[19]; target as printed, read-out: IC50 in vitro against hepatitis B virus DNA polymerase",5.26 µM
same,intracellular metabolite level,[20],46.9 ± 5.2 µM
same,intracellular metabolite level,[21],21.9 µM
"O=c1ccn([C@@H]2C[C@@H](O)[C@H](CO)O2)c(=O)[nH]1 [L-dU, β-L-2'-deoxyuridine]",share of the dose recovered in the urine,"[22]; iv, 10 mg/kg",4.0%
same,share of drug excreted in the urine (total recovered dose),[22]; po,29%
same,share of drug excreted in the urine (total recovered dose),[30],23%
same,share of drug excreted in the urine (total recovered dose),[14]; iv,approximately 2.5%
same,concentration,"[14]; iv, 10 mg/kg",220 to 880 nM
same,share of drug excreted in the urine (total recovered dose),[14]; po,approximately 2.5%
same,concentration,"[14]; po, 10 mg/kg, 8 h",390 nM
same,share of drug excreted in the urine (recovered dose),[17]; in vivo,approximately 10%
